Experimental data taken from patent US20240285599A1, “Mature-Hepatocyte Transdifferentiation Suppressing Composition” (OSAKA UNIVERSITY, priority 2021, published 2024).

Test system: HuCCT1 cell xenograft
Experiment: Xenograft of NIK shRNA-introduced HuCCT1 cells in NOG mouse
Type: in vivo
Details: HuCCT1 cells with shRNA introduced by lentivirus
Description: A histopathological slide was deparaffinized with xylene and ethanol. HE staining was performed with hematoxylin and eosin. In immunostaining, antigen activation was performed by heating in Target Retrieval Solution (Dako, USA), followed by blocking with bovine serum albumin and a reaction through use of a primary antibody at 4° C. overnight. A frozen section was dried at room temperature, and was blocked with BSA (Nacalai Tesque, Inc., Japan), followed by a reaction through use of a primary antibody in VECTASTAIN ABC Rabbit IgG Kit (Vector Laboratories, Inc., USA). DAB Substrate Kit (Vector Laboratories, Inc., USA) was used in a staining reaction. […] The number of Ki67-positive cells in a tumor was counted with ImageJ (Fiji). The immunostaining score of TRAF3 or NIK was calculated by multiplying a staining intensity (of from 0 to 3) by a stained area (%). Human ICC patients were grouped into two groups on the basis of the median immunostaining score of TRAF3 or NIK, and were evaluated for their disease-free survival (DFS) or overall survival (OS). […]
Further, the HuCCT1 cells were infected with negative control shRNA or NIK shRNA by using a lentivirus, and the infected cells were selected with puromycin. […] The measurement of the diameters of the tumors of the mice was started 3 weeks after the transplantation, and their tumor volumes were measured by the same method as that described above. […]

NIK shRNA: shRNA against NIK, SEQ ID NO: 1, introduced into HuCCT1 cells by a lentivirus (CCGGCUCAGGACUCACGUAGCAUUACUCGAGUAAUGCUACGUGAGUCCUGAGUUUUU)
number of Ki67-positive cells in tumors versus negative control shRNA-introduced tumors (FIG. 24B): significantly lower
growth of xenografts derived from the HuCCT1 cells (tumor size) (measured from day 21 after transplantation, FIG. 24A): significantly suppressed
